The text below walks through data of US20240116897A1, “BENZOTHIAZOLE AND BENZIMIDAZOLE DERIVATIVES, PHARMACEUTICALLY ACCEPTABLE SALT THEREOF, PREPARATION METHOD THEREFOR, AND PHARMACEUTICAL COMPOSITION COMPRISING SAME AS ACTIVE INGREDIENT” (KOREA RESEARCH INSTITUTE OF CHEMICAL TECHNOLOGY, priority 2021, published 2024).

Broadly, the inhibition is the drop in the measured response relative to a control, in per cent. A low value points to little suppression.

Molecules are shown by their SMILES.

The first test has as its target T1, SIRT7 protein (Homo sapiens, UniProt Q9NRC8).
T1 construct: purchased SignalChem S41-30H
T1 sequence (Q9NRC8 1-400): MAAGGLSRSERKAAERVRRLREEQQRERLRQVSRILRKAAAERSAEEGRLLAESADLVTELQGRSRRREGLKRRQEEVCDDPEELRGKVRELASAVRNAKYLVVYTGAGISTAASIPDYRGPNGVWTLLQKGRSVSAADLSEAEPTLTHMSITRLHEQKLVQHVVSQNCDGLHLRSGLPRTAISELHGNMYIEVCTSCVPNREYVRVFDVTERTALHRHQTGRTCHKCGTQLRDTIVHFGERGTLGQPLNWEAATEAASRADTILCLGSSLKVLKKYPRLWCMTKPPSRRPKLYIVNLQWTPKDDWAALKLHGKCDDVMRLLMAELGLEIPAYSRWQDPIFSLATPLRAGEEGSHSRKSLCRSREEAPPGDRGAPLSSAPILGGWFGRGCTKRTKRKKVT
Briefly: SIRT Glo assay, inhibitory activity against Sirt7. It is filed as biochemical. Particulars: 10 μM compound. In outline: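 Recombinant SIRT7 (20 ng per well) pre-incubated 30 min with compound in SIRT Glo buffer, then SIRT Glo substrate added for 1 h before luminescence reading. Background-subtracted signal expressed as % inhibition relative to no-compound control.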
Turning to `O=C(Nc1nc2ccccc2s1)c1ccc(CC2CCN(C(=O)Nc3ccccc3)CC2)cc1C(F)(F)F` [Compound 1-85, 4-(4-(benzo[d]thiazol-2-ylcarbamoyl)-3-(trifluoromethyl)benzyl)-N-phenylpiperidine-1-carboxamide], the inhibition at 10 µM is 28%.

In turn, `CC(C)(C)OC(=O)N1CCC(=Cc2ccc(C(=O)Nc3nc4ccccc4s3)c(F)c2)CC1` [Compound 1-86, tert-butyl 4-(4-(benzo[d]thiazol-2-ylcarbamoyl)-3-fluorobenzylidene)piperidine-1-carboxylate] registered an inhibition at 10 µM of 60%.

As for `O=C(Nc1nc2ccccc2s1)c1ccc(C=C2CCNCC2)cc1F` [Compound 1-87, N-(benzo[d]thiazol-2-yl)-2-fluoro-4-(piperidin-4-ylidenemethyl)benzamide], the inhibition at 10 µM was 100%.

Consider `CCNC(=O)N1CCC(=Cc2ccc(C(=O)Nc3nc4ccccc4s3)c(F)c2)CC1` [Compound 1-88, 4-(4-(benzo[d]thiazol-2-ylcarbamoyl)-3-fluorobenzylidene)-N-ethylpiperidine-1-carboxamide], for which 10 µM produced 100% inhibition.

Compound `O=C(Nc1nc2ccccc2s1)c1ccc(C=C2CCN(C(=O)Nc3ccccc3)CC2)cc1F` [Compound 1-89, 4-(4-(benzo[d]thiazol-2-ylcarbamoyl)-3-fluorobenzylidene)-N-phenylpiperidine-1-carboxamide] gave an inhibition at 10 µM of 97%.

As to `O=C(Nc1nc2ccccc2s1)c1ccc(C=C2CCN(S(=O)(=O)c3ccccc3)CC2)cc1F` [Compound 1-90, N-(benzo[d]thiazol-2-yl)-2-fluoro-4-((1-(phenylsulfonyl)piperidin-4-ylidene)methyl)benzamide], the inhibition at 10 µM was 27%.

`CCS(=O)(=O)N1CCC(=Cc2ccc(C(=O)Nc3nc4ccccc4s3)c(F)c2)CC1` [Compound 1-91, N-(benzo[d]thiazol-2-yl)-4-((1-(ethylsulfonyl)piperidin-4-ylidene)methyl)-2-fluorobenzamide] showed an inhibition at 10 µM of 76%.

As for `O=C(Nc1nc2ccccc2s1)c1ccc(C=C2CCN(C(=O)c3ccccc3)CC2)cc1F` [Compound 1-92, N-(benzo[d]thiazol-2-yl)-4-((1-benzoylpiperidin-4-ylidene)methyl)-2-fluorobenzamide], the inhibition at 10 µM came out at 97%.

`O=C(Nc1nc2ccccc2s1)c1ccc(C=C2CCN(C(=O)Nc3ccc(C(F)(F)F)cc3)CC2)cc1F` [Compound 1-93, 4-(4-(benzo[d]thiazol-2-ylcarbamoyl)-3-fluorobenzylidene)-N-(4-(trifluoromethyl)phenyl)piperidine-1-carboxamide] gave an inhibition at 10 µM of 70%.

On to `CC(C)NC(=O)N1CCC(=Cc2ccc(C(=O)Nc3nc4ccccc4s3)c(F)c2)CC1` [Compound 1-94, 4-(4-(benzo[d]thiazol-2-ylcarbamoyl)-3-fluorobenzylidene)-N-isopropylpiperidine-1-carboxamide], for which the inhibition at 10 µM turned out to be 98%.

`CC(C)(C)OC(=O)N1CCC(=Cc2ccc(C(=O)Nc3nc4ccccc4s3)cc2Cl)CC1` [Compound 1-95, tert-butyl 4-(4-(benzo[d]thiazol-2-ylcarbamoyl)-2-chlorobenzylidene)piperidine-1-carboxylate] returned an inhibition at 10 µM of 34%.

Compound `O=C(Nc1nc2ccccc2s1)c1ccc(C=C2CCNCC2)c(Cl)c1` [Compound 1-96, N-(benzo[d]thiazol-2-yl)-3-chloro-4-(piperidin-4-ylidenemethyl)benzamide] gave an inhibition at 10 µM of 91%.

Consider `CCNC(=O)N1CCC(=Cc2ccc(C(=O)Nc3nc4ccccc4s3)cc2Cl)CC1` [Compound 1-97, 4-(4-(benzo[d]thiazol-2-ylcarbamoyl)-2-chlorobenzylidene)-N-ethylpiperidine-1-carboxamide], for which the inhibition at 10 µM turned out to be 100%.

For the compound `CC(C)(C)OC(=O)N1CCC(=Cc2cc(F)c(C(=O)Nc3nc4ccccc4s3)c(F)c2)CC1` [Compound 1-98, tert-butyl 4-(4-(benzo[d]thiazol-2-ylcarbamoyl)-3,5-difluorobenzylidene)piperidine-1-carboxylate], testing at 10 µM gave an inhibition of 21%.

`O=C(Nc1nc2ccccc2s1)c1c(F)cc(C=C2CCNCC2)cc1F` [Compound 1-99, N-(benzo[d]thiazol-2-yl)-2,6-difluoro-4-(piperidin-4-ylidenemethyl)benzamide] had an inhibition at 10 µM of 63%.

Regarding `CCNC(=O)N1CCC(=Cc2cc(F)c(C(=O)Nc3nc4ccccc4s3)c(F)c2)CC1` [Compound 1-100, 4-(4-(benzo[d]thiazol-2-ylcarbamoyl)-3,5-difluorobenzylidene)-N-ethylpiperidine-1-carboxamide], the inhibition at 10 µM was found to be 96%.

`O=C(Nc1nc2ccccc2s1)c1c(F)cc(C=C2CCN(C(=O)Nc3ccccc3)CC2)cc1F` [Compound 1-101, 4-(4-(benzo[d]thiazol-2-ylcarbamoyl)-3,5-difluorobenzylidene)-N-phenylpiperidine-1-carboxamide] gave an inhibition at 10 µM of 100%.

Compound `O=C(Nc1nc2ccccc2s1)c1c(F)cc(C=C2CCN(C(=O)Nc3ccc(C(F)(F)F)cc3)CC2)cc1F` [Compound 1-102, 4-(4-(benzo[d]thiazol-2-ylcarbamoyl)-3,5-difluorobenzylidene)-N-(4-(trifluoromethyl)phenyl)piperidine-1-carboxamide] displayed an inhibition at 10 µM of 37%.

As for `CC(C)(C)OC(=O)N1CCC(=Cc2ccc(C(=O)Nc3nc4ccccc4s3)c(Cl)c2)CC1` [Compound 1-103, tert-butyl 4-(4-(benzo[d]thiazol-2-ylcarbamoyl)-3-chlorobenzylidene)piperidine-1-carboxylate], 10 µM produced 44% inhibition.

For `O=C(Nc1nc2ccccc2s1)c1ccc(C=C2CCNCC2)cc1Cl` [Compound 1-104, N-(benzo[d]thiazol-2-yl)-2-chloro-4-(piperidin-4-ylidenemethyl)benzamide], the inhibition at 10 µM was 92%.

Regarding `CCNC(=O)N1CCC(=Cc2ccc(C(=O)Nc3nc4ccccc4s3)c(Cl)c2)CC1` [Compound 1-105, 4-(4-(benzo[d]thiazol-2-ylcarbamoyl)-3-chlorobenzylidene)-N-ethylpiperidine-1-carboxamide], the inhibition at 10 µM was determined as 100%.

As to `O=C(Nc1nc2ccccc2s1)c1ccc(C=C2CCN(C(=O)Nc3ccccc3)CC2)cc1Cl` [Compound 1-106, 4-(4-(benzo[d]thiazol-2-ylcarbamoyl)-3-chlorobenzylidene)-N-phenylpiperidine-1-carboxamide], at 10 µM the inhibition was 99%.

In turn, `O=C(Nc1nc2ccccc2s1)c1ccc(C=C2CCN(C(=O)Nc3ccc(C(F)(F)F)cc3)CC2)cc1Cl` [Compound 1-107, 4-(4-(benzo[d]thiazol-2-ylcarbamoyl)-3-chlorobenzylidene)-N-(4-(trifluoromethyl)phenyl)piperidine-1-carboxamide] had an inhibition at 10 µM of 34%.

`O=C(Nc1nc2ccccc2s1)c1ccc(C=C2CCN(C(=O)Nc3ccc(F)cc3)CC2)cc1Cl` [Compound 1-108, 4-(4-(benzo[d]thiazol-2-ylcarbamoyl)-3-chlorobenzylidene)-N-(4-fluorophenyl)piperidine-1-carboxamide]: the inhibition at 10 µM was determined as 100%.

The test system of a further test is COLO32ODM tumor xenograft. As to the kind of experiment: In vivo mouse tumor xenograft, COLO32ODM. To be noted: nude mice, 3 weeks. As to the method: The compounds of the present invention were administered to mouse tumor xenograft to measure tumor suppression in vivo test. BALB/C-nu female 5-week-old mice were introduced. COLO32ODM and SW480 cells, which are human colorectal cancer cells, were isolated from culture flasks using trypsin and prepared at a concentration of 1×10^8 cell/ml. It was mixed with Matrigel (Gibco, Cat. No. A14133-02) at a ratio of 1:1 and injected 100 μL subcutaneously into the dorsal side of 5-week-old mice. After 2 weeks, when the volume of the mouse tumor reached 100 mm^3, oral administration of the compound was started 5 times a week. (Day 0), After that, it was conducted for 3 weeks.
In the negative control group, 0.1% Carboxylmethyl cellulose and 0.2% tween 80 solution were administered instead of the compound according to the same administration route and administration frequency. 6 mice were used for each experimental group (FIG. 3). The size of the tumor was measured in the long axis (length, L) and the short axis (width, W) once every 3 days, and the tumor volume (mm^3) was calculated as (L×W×W)/2 thereby the average for each group was calculated. Statistical processing was performed using the GraphPad Prism6 program, and a p-value of less than 0.05 was considered significant.
A 5-week-old nude mouse whose thymus was removed and whose T cells were reduced and whose immune system was suppressed was introduced, and human colorectal cancer cell lines, COLO32ODM and SW480, were subcutaneously injected.
As to `CCNC(=O)N1CCC(=Cc2ccc(C(=O)Nc3nc4ccccc4s3)c(Cl)c2)CC1` [Compound 1-105, 4-(4-(benzo[d]thiazol-2-ylcarbamoyl)-3-chlorobenzylidene)-N-ethylpiperidine-1-carboxamide], the “tumor size compared to the control group” value is recorded as “reduced”.

Take `O=C(Nc1nc2ccccc2s1)c1ccc(C=C2CCN(C(=O)Nc3ccccc3)CC2)cc1Cl` [Compound 1-106, 4-(4-(benzo[d]thiazol-2-ylcarbamoyl)-3-chlorobenzylidene)-N-phenylpiperidine-1-carboxamide]: the “tumor size compared to the control group” value is “reduced”.
